Reference: US10060933B2, “Methods for diagnosis and treatment of amyotrophic lateral sclerosis based on an increased level of interaction between TDP-43 polypeptide and NF-KB P65 polypeptide” (UNIVERSITE LAVAL, priority 2011, dated 2018)
Entries after “also recorded” stand apart in the source; their conditions may differ.

Key:
GFAP-luc/TDP-43^Wt mice = test: Accelerating rotarod in TDP-43^Wt transgenic mice; assay type: in vivo, mouse
Procedure: (§1) To study the in vivo effect of NF-κB inhibition on disease progression, we injected TDP-43^wt; GFAP-luc double transgenic mice with 3 mg/kg body weight of WA twice a week for 10-weeks starting at 30-weeks. […] We used TDP-43^wt; GFAP-luc double transgenic mice because the reporter luciferase (luc) allowed the longitudinal and non-invasive biophotonic imaging with CCD camera of the GFAP promoter activity which is a target of activated NF-κB. To analyse the spatial and temporal dynamics of astrocytes activation/GFAP induction in TDP-43 mouse model, we performed series of live imaging experiments. […] The downregulation of GFAP promoter activity was further confirmed in these mice using GFAP immunofluorescence of spinal cord sections of TDP-43^Wt mice (both drug-treated and untreated) (FIG. 8F). […] Down-regulation of GFAP along with reduction in active p65 levels in withaferin treated mice prompted us to analyse behavioural changes in these mice. […] The withaferin treated mice also had 40% reduction in the number of partially denervated neuromuscular junction (NMJ) (FIGS. 8E&G).
Age matched control non-transgenic animals (n=10) and in TDP-43^Wt (n=10) littermates were injected twice a week with 0.9% saline intra-peritoneally. All the behavioral and imaging experiments were conducted in a double blind manner as such the experimenter had no knowledge of the drug treatment or the genotype of animals.
(§2) Accelerating rotarod was performed on mice at 4 rpm speed with 0.25 rpm/sec acceleration as described elsewhere^30. Mice were subjected to three trials per session and every two weeks.

TDP-43^G348C mice = test: Accelerating rotarod in TDP-43^G348C mice; assay type: in vivo, mouse; conditions: WA-treated vs untreated TDP-43^G348C mice
Procedure: Accelerating rotarod analysis was performed in TDP-43^G348C mice at various ages from 8 wk to 52 wk, and time taken by the mice to fall from the rotarod is used as rotarod performance. WA treatment period is marked as drug treatment period. Error bars represent mean±SEM (n=10 each group) (FIG. 25).
as §2

Mac-2 positive cells = test: Activated microglia (Mac-2, Cox-2) in spinal cord sections; assay type: in vivo, mouse
Procedure: as §1
(§3) 4% Paraformaldehyde (PFA) fixed spinal cord and brain sections of mice were sectioned and fixed on slides. For immunohistochemistry, tissues were treated with hydrogen-peroxide solution before permeabilisation. […]

p65 = target: T1, p65 (Mus musculus, UniProt Q04207); test: p65 EMSA on spinal cord tissue nuclear lysates; assay type: in vivo; conditions: treated vs untreated GFAP-luc/TDP-43^Wt mice
T1 construct: from tissue; host or cells: spinal cord of GFAP-luc/TDP-43^Wt transgenic mice (nuclear lysates)
T1 sequence (Q04207 whole entry): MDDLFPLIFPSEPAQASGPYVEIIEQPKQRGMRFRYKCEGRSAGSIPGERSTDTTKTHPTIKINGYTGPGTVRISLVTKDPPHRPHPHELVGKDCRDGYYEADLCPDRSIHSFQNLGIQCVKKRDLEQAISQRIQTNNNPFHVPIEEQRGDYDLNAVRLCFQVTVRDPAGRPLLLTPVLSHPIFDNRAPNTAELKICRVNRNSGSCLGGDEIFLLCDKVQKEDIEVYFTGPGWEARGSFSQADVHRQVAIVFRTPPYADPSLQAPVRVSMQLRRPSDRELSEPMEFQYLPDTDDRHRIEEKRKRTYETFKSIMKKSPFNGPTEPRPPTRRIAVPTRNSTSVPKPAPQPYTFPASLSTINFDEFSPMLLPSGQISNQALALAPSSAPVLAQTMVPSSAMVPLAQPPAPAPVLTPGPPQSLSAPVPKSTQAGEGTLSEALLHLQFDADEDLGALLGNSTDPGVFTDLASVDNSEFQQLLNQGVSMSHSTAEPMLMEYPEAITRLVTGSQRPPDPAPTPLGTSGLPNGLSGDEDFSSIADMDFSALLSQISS
Procedure: as §1
48 hrs after transfection of CMV-p65 with pCMV-TDP43^WT or pCMV-TDP43^G348C and treatment with LPS, BV-2 cells were harvested and nuclear extracts prepared. […] Concentrations of nuclear proteins were determined on diluted samples using a Bradford assay (Biorad). […]

[1] = Detection of Withaferin A in the CSF of mice using HPLC; assay type: in vivo, mouse
Procedure: FIG. 15. Detection of Withaferin A in the CSF of mice using HPLC. […] For blank samples (B), 0.9% saline was injected in non-transgenic mice. 1.5 hrs after injection, CSF samples from the mice were obtained using […] into the cistern magna. 50 μl of the sample was mixed with 60% ACN 0.1% formic acid, centrifuged and the supernatant was injected into HPLC. […] 1000 ng/ml withaferin-a chemical served as a standard (C). Withaferin retention time was 1.6 mins.

GFAP = GFAP immunofluorescence of spinal cord sections; assay type: in vivo, mouse; conditions: GFAP-luc/TDP-43^Wt mice, treated vs untreated
Procedure: as §1, §3

peripherin = test: Peripherin immunofluorescence and immunoblot of spinal cord; assay type: in vivo, mouse; conditions: TDP-43^Wt mice, treated vs untreated
Procedure: as §1
Snap frozen spinal cords of mice were harvested with lysis buffer containing 25 mM HEPES-NaOH (pH 7.9), 150 mM NaCl, 1.5 mM MgCl2, 0.2 mM EDTA, 0.5% Triton-X-100, 1 mM dithiothreitol and protease inhibitor cocktail. Protein samples were estimated using Bradford method. The lysate was incubated with 50 μl of Dynabeads (Protein-G beads, Invitrogen), anti-TDP-43 polyclonal (ProteinTech, Chicago, Ill., USA) or anti-peripherin polyclonal antibody (AB1530, Chemicon, Billerica, Mass., USA). After subsequent washing, the beads were incubated overnight at 4° C. with […] of tissue lysate. Antibody-bound complexes were eluted by boiling in Laemmli sample buffer. Supernatants were resolved by 10% SDS-PAGE and transferred on nitrocellulose membrane (Biorad, Hercules, Calif., USA). The membrane was incubated with anti-ubiquitin antibody (1:1000, Abcam, Cambridge, Mass., USA). For other western blot assays, blots were incubated with primary antibodies against human monoclonal TARDBP antibody (1:1000, Abnova, clone E2-D3), peripherin polyclonal (1:1000, Chemcion—AB1530), peripherin monoclonal (1:500, Chemicon, AB1527), Clone NR4 for NF-L (1:1000, Sigma), Clone NN18 for NF-M (1:1000, Millipore) and Clone N52 for NF-H (1:1000, Millipore). Immunoreactive proteins were then visualized by chemiluminescence (Perkin and Elmer, Santa Clara, Calif., USA) as described previously (Dequen et al., 2008). Actin (1:10000, Chemicon) is used as a loading control.
as §3

In the case of `CC1=C(CO)C(=O)O[C@@H]([C@@H](C)[C@H]2CC[C@H]3[C@@H]4C[C@H]5O[C@]56[C@@H](O)C=CC(=O)[C@]6(C)[C@H]4CC[C@]23C)C1` [Withaferin A], the rotarod performance (GFAP-luc/TDP-43^Wt mice; GFAP-luc/TDP-43^Wt mice, 3 mg/kg i.p. twice a week for 10 weeks, vs untreated, 3 mg/kg) is reported as “significantly better motor performance; also recorded: much better rotarod performance”, the “ameliorated motor impairment compared to untreated mice” value (GFAP-luc/TDP-43^Wt mice; TDP-43^WT or TDP-43^G348C transgenic mice) is reported as “at least 4%” and the “rotarod performance after cessation of the drug treatment” value (GFAP-luc/TDP-43^Wt mice; withaferin treated TDP-43 transgenic mice after cessation of treatment) is reported as “decrease in rotarod performance”. The “motor performance (accelerating rotarod, time to fall)” value (TDP-43^G348C mice) was “significantly better motor performance”, the “Mac-2^+ cells in L5 spinal cord” value (Mac-2 positive cells; TDP-43^Wt (Withaferin treated) mice, untreated 13000±500/mm^3) was 6000±300 /mm^3 and the “activated microglia (Mac-2 and Cox-2 double immunofluorescence)” value (Mac-2 positive cells; TDP-43^Wt mice, treated vs untreated) was “marked reduction in activated microglia”. For the same compound, the “nuclear active p65 (EMSA)” value (p65) was “reduced amount of active p65; also recorded: much reduced nuclear active p65”, the “Withaferin A in CSF (HPLC)” value ([1]; 3 mg/kg intra-peritoneally, CSF 1.5 hrs after injection, 8-months old non-transgenic and TDP-43^Wt mice) was “presence of Withaferin-A” and the “passage of the blood-brain barrier” value ([1]; mice, FIG. 15) was “passes the blood-brain barrier”. For the same compound, the “GFAP activation (GFAP immunofluorescence of spinal cord sections)” value (GFAP) was “downregulation; also recorded: significantly low GFAP activation”, the “peripherin in spinal cord (immunofluorescence, polyclonal antibody)” value (peripherin; listed as Withaferin) was “reduced levels of peripherin” and the “peripherin levels in spinal cord (western blot / immunoblot, monoclonal antibody)” value (peripherin; listed as Withaferin) was “reduced levels of peripherin”. For the same compound, the “peripherin in spinal cord (immunofluorescence, polyclonal antibody)” value (peripherin; listed as withaferin) was “reduction of peripherin aggregates” and the “peripherin levels in spinal cord (western blot / immunoblot, monoclonal antibody)” value (peripherin; listed as withaferin) was “reduced”.
